From patent EP4631498A1, “EYE DROP-TYPE PHARMACEUTICAL COMPOSITION CONTAINING ENVOGLIFLOZIN” (Daewoong Therapeutics Inc., priority 2022, dated 2024)
Values after ≈ are worked out from the molar mass of the structure shown. Read-outs that look alike come from different tables or passages of the source.

Experiment: Saturation solubility of enavogliflozin in aqueous excipient solutions (HPLC)
Format: physicochemical
Settings: for solubility at 12 h: aqueous excipient solution (excipient in purified water), thermodynamic from solid
Experimental: According to Table 1 below, enavogliflozin in the amount corresponding to each standard solution and 70 mL of methanol were placed in a volumetric flask and then completely dissolved under ultrasonic agitation. Methanol was added thereto to adjust the total volume to 100 mL. The resulting solution was taken and filtered through a 0.45 µm RC (Regenerated Cellulose) membrane filter. The first 2 mL was discarded and then the filtrate was used as a standard solution.
Each excipient was dissolved in 5 mL of purified water at the maximum concentration recommended by the FDA (Table 2) and then enavogliflozin was added thereto until it was no longer dissolved, followed by stirring for approximately 12 hours. After confirming no dissolution after 12 hours, each sample was centrifuged at 4000 rpm for 30 minutes and the clear supernatant (1 mL) was taken and then diluted with methanol. The resulting solution was filtered through a 0.45 µm RC membrane filter. The first 2 mL was discarded and then the filtrate was used as a test solution.
The peak areas of the standard and test solutions were analyzed under the following HPLC conditions. • Detector: UV spectrophotometer (wavelength: 225 nm) • Column: Capcellpak C18 (4.6 x 250 mm, 5 µm) • Column temperature: about 35°C • Sample temperature: about 25°C • Mobile phase: Buffer solution : acetonitrile = 25 : 75 (v/v) (Buffer solution: prepared by dissolving 100 µl of trifluoroacetic acid in 1000 mL of water) • Flow rate: 1.0 mL/min • Injection volume: 10 µL • Analysis time: about 20 minutes
Polyoxyl 40 stearate (Myrj™ S40) was dissolved in 5 mL of purified water at the concentration of 7.0 w/v% and then enavogliflozin was added thereto until it was no longer dissolved, followed by stirring for approximately 12 hours. Thereafter, the degree of solubilization was evaluated in the same manner as in Example 1.

OC[C@H]1O[C@@H](c2cc(Cc3ccc(C4CC4)cc3)c(Cl)c3c2CCO3)[C@H](O)[C@@H](O)[C@@H]1O [enavogliflozin, Enavogliflozin]
Solubility for unit concentration (Aqualon™ CMC 0.50 %w/v): 0.59 mg/% | Solubility for unit concentration (Cavasol™ W8 1.50 %w/v): 0.72 mg/% | Solubility for unit concentration (EtOH 0.50 %w/v): 0.51 mg/% | Solubility for unit concentration (Glycerol 2.25 %w/v): 0.11 mg/% | Solubility for unit concentration (HPMC 606 0.60 %w/v): 0.56 mg/% | Solubility for unit concentration (Kollidon™ K30 15.00 %w/v): 0.24 mg/% | Solubility for unit concentration (Kollidon™ K90 1.50 %w/v): 0.41 mg/% | Solubility for unit concentration (Kolliphor™ EL 5.00 %w/v): 3.37 mg/% | Solubility for unit concentration (Kolliphor™ HS 15 0.25 %w/v): 4.09 mg/% | Solubility for unit concentration (Kolliphor™ RH 40 1.00 %w/v): 3.64 mg/% | Solubility for unit concentration (Kollisolv™ PG 1.50 %w/v): 0.18 mg/% | Solubility for unit concentration (PEG 400 4.00 %w/v): 0.08 mg/% | Solubility for unit concentration (TPGS 0.50 %w/v): 4.63 mg/% | Solubility for unit concentration (Tween™ 20 0.05 %w/v): 7.21 mg/% | Solubility for unit concentration (Tween™ 80 4.00 %w/v): 3.95 mg/% | solubility at 12 h (aqueous with cosolvent or surfactant or cyclodextrin, Aqualon™ CMC 0.50 %w/v in purified water, read-out: Saturation solubility): 300 µg/mL (≈ 671 µM) | solubility at 12 h (aqueous with cosolvent or surfactant or cyclodextrin, Cavasol™ W8 1.50 %w/v in purified water, read-out: Saturation solubility): 1090 µg/mL (≈ 2440 µM) | solubility at 12 h (aqueous with cosolvent or surfactant or cyclodextrin, HPMC 606 0.60 %w/v in purified water, read-out: Saturation solubility): 330 µg/mL (≈ 738 µM) | solubility at 12 h (aqueous with cosolvent or surfactant or cyclodextrin, Kollidon™ K30 15.00 %w/v in purified water, read-out: Saturation solubility): 3600 µg/mL (≈ 8060 µM) | solubility at 12 h (aqueous with cosolvent or surfactant or cyclodextrin, Kollidon™ K90 1.50 %w/v in purified water, read-out: Saturation solubility): 620 µg/mL (≈ 1390 µM) | solubility at 12 h (aqueous with cosolvent or surfactant or cyclodextrin, Kolliphor™ EL 5.00 %w/v in purified water, read-out: Saturation solubility): 16800 µg/mL (≈ 37700 µM) | solubility at 12 h (aqueous with cosolvent or surfactant or cyclodextrin, Kolliphor™ EL 5.0 w/v% in purified water, read-out: Saturation solubility of enavogliflozin): 16800 µg/mL (≈ 37700 µM) | solubility at 12 h (aqueous with cosolvent or surfactant or cyclodextrin, Kolliphor™ HS 15 0.25 %w/v in purified water, read-out: Saturation solubility): 1020 µg/mL (≈ 2280 µM) | solubility at 12 h (aqueous with cosolvent or surfactant or cyclodextrin, Kolliphor™ RH 40 1.00 %w/v in purified water, read-out: Saturation solubility): 3640 µg/mL (≈ 8140 µM) | solubility at 12 h (aqueous with cosolvent or surfactant or cyclodextrin, Polyoxyl 40 stearate 7.0 w/v% in purified water, read-out: Saturation solubility of enavogliflozin): 32000 µg/mL (≈ 71600 µM) | solubility at 12 h (aqueous with cosolvent or surfactant or cyclodextrin, TPGS 0.50 %w/v in purified water, read-out: Saturation solubility): 2310 µg/mL (≈ 5170 µM) | solubility at 12 h (aqueous with cosolvent or surfactant or cyclodextrin, Tween™ 20 0.05 %w/v in purified water, read-out: Saturation solubility): 360 µg/mL (≈ 806 µM) | solubility at 12 h (aqueous with cosolvent or surfactant or cyclodextrin, Tween™ 80 4.00 %w/v in purified water, read-out: Saturation solubility): 15800 µg/mL (≈ 35400 µM) | solubility at 12 h (water, EtOH 0.50 %w/v in purified water, read-out: Saturation solubility): 260 µg/mL (≈ 582 µM) | solubility at 12 h (water, Glycerol 2.25 %w/v in purified water, read-out: Saturation solubility): 240 µg/mL (≈ 537 µM) | solubility at 12 h (water, Kollisolv™ PG 1.50 %w/v in purified water, read-out: Saturation solubility): 270 µg/mL (≈ 604 µM) | solubility at 12 h (water, PEG 400 4.00 %w/v in purified water, read-out: Saturation solubility): 330 µg/mL (≈ 738 µM)
